According to patent US10259810B2, “N-sulfonylated pyrazolo[3,4-b]pyridin-6-carboxamides and method of use” (AbbVie S.à.r.l., priority 2015, dated 2019):
Read-outs that look alike come from different tables or passages of the source.

Assays:
Type in all cases: cell-based
[1] = target: T1, ΔF508-CFTR (Homo sapiens, UniProt P13569, DEL508-508); assay: CFTR cell surface levels using HRP-tagged ΔF508-CFTR expressing CFBE cells, in the presence of a co-corrector; conditions: HRP-tagged ΔF508-CFTR CFBE cells, in the presence of 3 μM co-corrector; for EC50: read-out: EC50
T1 construct: host or cells: CFBE41o-, doxycycline-inducible
T1 sequence (P13569 with tags, fused parts or gaps DEL508-508): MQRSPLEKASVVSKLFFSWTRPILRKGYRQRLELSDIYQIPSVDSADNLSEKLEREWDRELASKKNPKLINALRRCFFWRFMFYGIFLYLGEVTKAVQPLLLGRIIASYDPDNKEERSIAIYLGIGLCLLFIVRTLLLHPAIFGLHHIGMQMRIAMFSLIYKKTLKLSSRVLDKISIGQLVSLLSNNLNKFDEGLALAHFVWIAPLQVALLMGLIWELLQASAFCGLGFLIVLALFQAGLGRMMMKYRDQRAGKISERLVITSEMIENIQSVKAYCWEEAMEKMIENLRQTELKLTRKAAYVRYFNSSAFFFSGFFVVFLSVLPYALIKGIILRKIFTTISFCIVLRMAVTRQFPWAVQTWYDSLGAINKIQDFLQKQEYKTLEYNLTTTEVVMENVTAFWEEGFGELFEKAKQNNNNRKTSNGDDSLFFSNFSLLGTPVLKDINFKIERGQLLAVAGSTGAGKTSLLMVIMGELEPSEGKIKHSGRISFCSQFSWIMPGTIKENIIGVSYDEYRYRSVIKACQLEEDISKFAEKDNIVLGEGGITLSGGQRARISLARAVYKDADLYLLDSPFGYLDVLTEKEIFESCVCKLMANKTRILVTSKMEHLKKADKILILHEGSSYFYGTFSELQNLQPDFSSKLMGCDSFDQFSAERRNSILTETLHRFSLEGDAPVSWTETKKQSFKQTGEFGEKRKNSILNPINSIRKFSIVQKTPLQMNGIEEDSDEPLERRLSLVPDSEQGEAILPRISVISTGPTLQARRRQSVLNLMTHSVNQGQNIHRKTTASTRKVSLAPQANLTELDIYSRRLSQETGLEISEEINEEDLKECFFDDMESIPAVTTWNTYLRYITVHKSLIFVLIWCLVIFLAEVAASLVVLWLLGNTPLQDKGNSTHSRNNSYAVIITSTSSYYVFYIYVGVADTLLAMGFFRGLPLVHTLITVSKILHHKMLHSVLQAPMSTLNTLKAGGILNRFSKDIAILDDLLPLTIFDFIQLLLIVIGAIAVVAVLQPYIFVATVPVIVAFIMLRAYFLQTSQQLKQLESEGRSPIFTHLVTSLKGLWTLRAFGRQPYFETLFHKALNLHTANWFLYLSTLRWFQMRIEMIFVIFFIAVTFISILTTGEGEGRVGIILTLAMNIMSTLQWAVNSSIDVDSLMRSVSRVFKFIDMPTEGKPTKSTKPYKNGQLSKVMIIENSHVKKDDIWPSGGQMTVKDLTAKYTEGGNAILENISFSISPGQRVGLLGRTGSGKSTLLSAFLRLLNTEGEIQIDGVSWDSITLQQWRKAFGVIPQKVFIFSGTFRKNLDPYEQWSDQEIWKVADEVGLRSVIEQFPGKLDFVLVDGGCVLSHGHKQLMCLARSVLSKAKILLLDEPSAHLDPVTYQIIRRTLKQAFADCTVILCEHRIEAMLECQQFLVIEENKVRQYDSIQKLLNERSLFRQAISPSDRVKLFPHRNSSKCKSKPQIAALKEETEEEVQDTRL
Summary of the method: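 Chemiluminescent read-out of surface HRP (15 min, dark) after PBS washes. Activity is normalized as 100×(sample−DMSO)/(3 μM co-corrector alone−DMSO).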

[2] = target: T2, CFTR ΔF508 (Homo sapiens, UniProt P13569, DEL508-508); assay: Chronic TECC assay, primary bronchial epithelial cells of CF patients homozygous for CFTR ΔF508 (corrector, co-corrector and potentiator); conditions: for % Activity at 1 μM (AUC**) / % Activity at 1 μM (Ieq*): test compound at 1 μM; for % Activity at 3 μM (AUC**): test compound at 3 μM
T2 construct: bronchial epithelial cells isolated from CF patients homozygous for the CFTR ΔF508 mutation; McGill University; Asterand; University of North Carolina hAEC-CF; host or cells: primary human bronchial epithelial cells from CF patients homozygous for ΔF508, differentiated at air-liquid interface
T2 sequence (P13569 with tags, fused parts or gaps DEL508-508): as above
Procedure: Primary Bronchial Epithelial Cells Protocol
The TECC (Tranepithelial Clamp Circuit, EP-design) assay measures the functionality of the cystic fibrosis Transmembrane Conductance regulator (CFTR) by measuring the short circuit current (Isc) generated over the basolateral and apical membrane of lung epithelial cells. In TECC the transepithelial potential PD and transepithelial resistance (Rt) are measured in an open circuit and transformed to Ieq using Ohm's law. 24 Wells can be measured simultaneously allowing a higher throughput compared to Ussing chambers.
For this purpose, bronchial epithelial cells isolated from CF patients homozygous for the CFTR ΔF508 mutation (hAEC-CF, Epithelix, Geneva, Switzerland; McGill University, Montreal, Qc; Asterand, Detroit, Mich.; University of North Carolina, Chapel Hill, N.C.) are plated on type IV collagen-coated Transwell® supports (Costar).
For electrophysiological recording of the “chronic” experiments, the human airway epithelia are mounted in the TECC heating plate for electrophysiological measurement and kept at 37° C. The epithelia are bathed in a NaCl-Ringer solution (120 mM NaCl, 25 mM NaHCO3, 1.2 mM CaCl2, 1.2 mM MgCl2, 0.8 mM KH2PO4, 0.8 mM K2HPO4, pH 7.4, 5 mM glucose) on both the basolateral and apical sides. Test compounds (corrector, co-corrector, 4-[(2R,4R)-4-({[1-(2,2-difluoro-1,3-benzodioxol-5-yl)cyclopropyl]carbonyl}amino)-7-(difluoromethoxy)-3,4-dihydro-2H-chromen-2-yl]benzoic acid, and potentiator, N-(3-carbamoyl-5,5,7,7-tetramethyl-4,7-dihydro-5H-thieno[2,3-c]pyran-2-yl)-1H-pyrazole-5-carboxamide), are re-added to the recording solution prior to measurement. […] Apical amiloride is used to inhibit the endogenous ENaC currents while forskolin is applied on both apical and basolateral side to stimulate CFTR. Measurements are done during a 20 minute timeframe with recordings every 2 minutes. The increase in Ieq is used as a measure for the increased CFTR activity, EC50 values can be generated by measuring impact of different concentrations of compound on Ieq on primary cells, for this purpose each transwell is treated with a different compound concentration. […] Raw data were normalized to percentage activity values using the equation: 100×(Sample−Negative control)/(Positive control−Negative Control).

[3] = target: T1, ΔF508-CFTR; assay: CFTR cell surface levels using HRP-tagged ΔF508-CFTR expressing CFBE cells, intrinsic corrector capacity; parameters: % Activation: concentration or dose not given beside the values; conditions: HRP-tagged ΔF508-CFTR expressing CFBE41o- cells, compound alone (intrinsic corrector capacity), 20 hours at 33° C.; for EC50: read-out: EC50
Summary of the method: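 Surface ΔF508-CFTR was measured as HRP chemiluminescence from an extracellular-loop-4 tag, expressed as percent activity between DMSO and a […] corrector control.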

[4] = chronic TECC, AUC = full area under the curve upon forskolin stimulation, read-out: EC50 (nM) (AUC**)
[5] = chronic TECC, AUC = full area under the curve upon forskolin stimulation
[6] = chronic TECC, Ieq = calculations based on the maximum current, read-out: EC50 (nM) (Ieq*)
[7] = chronic TECC, Ieq = calculations based on the maximum current

Row | Compound | % Activation [1] | EC50 [1] | EC50 [2, 4] | % Activity at 1 μM (AUC**) [2, 5] | % Activation [3] | EC50 [3] | also measured
1 | COC1CCN(c2cc(C(=O)NS(C)(=O)=O)nc3c2c(C(C)C)nn3-c2ccc(F)cc2)CC1 [Compound 167, 1-(4-fluorophenyl)-N-(methanesulfonyl)-4-(4-methoxypiperidin-1-yl)-3-(propan-2-yl)-1H-pyrazolo[3,4-b]pyridine-6-carboxamide] | 429.4% | 81.8 nM | 32 nM | 260% | 260.6% | 313 nM | 
2 | CNS(=O)(=O)NC(=O)c1cc(N2CCC(N3CCN(C4CC4)CC3)CC2)c2c(C3CCC3)nn(-c3ccccc3)c2n1 [Compound 558, 3-cyclobutyl-4-[4-(4-cyclopropylpiperazin-1-yl)piperidin-1-yl]-N-(methylsulfamoyl)-1-phenyl-1H-pyrazolo[3,4-b]pyridine-6-carboxamide] | 571.35% | 106 nM | 4.74 nM | 221.9818% | 399.1% | 532 nM | 
3 | CS(=O)(=O)NC(=O)c1cc(OCCN2CCS(=O)(=O)CC2)c2c(C3CCC3)nn(-c3ccccc3)c2n1 [Compound 243, 3-cyclobutyl-4-[2-(1,1-dioxo-1λ^6,4-thiazinan-4-yl)ethoxy]-N-(methanesulfonyl)-1-phenyl-1H-pyrazolo[3,4-b]pyridine-6-carboxamide] | 204.1% | 3330 nM |  | 165.81% | 78.11% | 3340 nM | 
4 | CC(C)Oc1nccc(-n2nc(C3CCC3)c3c(N4CCC(N5CCOCC5)CC4)cc(C(=O)NS(=O)(=O)N(C)C)nc32)n1 [Compound 621, 3-cyclobutyl-N-(dimethylsulfamoyl)-4-[4-(morpholin-4-yl)piperidin-1-yl]-1-{2-[(propan-2-yl)oxy]pyrimidin-4-yl}-1H-pyrazolo[3,4-b]pyridine-6-carboxamide] | 348.55% | 77 nM |  |  | 160.45% | 173 nM | % Activity at 3 μM (AUC**) [2, 5]: 256.6667%
5 | COC1CN(C2CCN(c3cc(C(=O)NS(=O)(=O)N(C)C)nc4c3c(C3CCC3)nn4-c3ccc(F)cc3)CC2)C1 [Compound 570, 3-cyclobutyl-N-(dimethylsulfamoyl)-1-(4-fluorophenyl)-4-[4-(3-methoxyazetidin-1-yl)piperidin-1-yl]-1H-pyrazolo[3,4-b]pyridine-6-carboxamide] | 412.9% | 208 nM |  |  | 235.8% | 496 nM | % Activity at 3 μM (AUC**) [2, 5]: 377.5594%
6 | CC(C)c1nn(-c2cccc(N3CCOCC3)c2)c2nc(C(=O)NS(C)(=O)=O)cc(-c3ccc(N(C)C4CCOCC4)nc3)c12 [Compound 87, N-(methanesulfonyl)-4-{6-[methyl(oxan-4-yl)amino]pyridin-3-yl}-1-[3-(morpholin-4-yl)phenyl]-3-(propan-2-yl)-1H-pyrazolo[3,4-b]pyridine-6-carboxamide] | 623.62% | 456 nM |  |  | 422.84% | 409 nM | EC50 [2, 6]: < 30 nM; % Activity at 1 μM (Ieq*) [2, 7]: 150%
7 | CN(C)S(=O)(=O)NC(=O)c1cc(OCC2CCOCC2)c2c(C3CCC3)nn(-c3ccccc3)c2n1 [Compound 334, 3-cyclobutyl-N-(dimethylsulfamoyl)-4-[(oxan-4-yl)methoxy]-1-phenyl-1H-pyrazolo[3,4-b]pyridine-6-carboxamide] |  |  |  |  | 121.75% | 167 nM | % Activity at 3 μM (AUC**) [2, 5]: 345.13%
8 | COCCN1CCN(c2ccc(-c3cc(C(=O)NS(=O)(=O)N(C)C)nc4c3c(C3CCC3)nn4C3CCCCC3)cn2)CC1 [Compound 552, 3-cyclobutyl-1-cyclohexyl-N-(dimethylsulfamoyl)-4-{6-[4-(2-methoxyethyl)piperazin-1-yl]pyridin-3-yl}-1H-pyrazolo[3,4-b]pyridine-6-carboxamide] | 364.2% | 130 nM |  | 235.2857% |  |  | 
9 | CS(=O)(=O)NC(=O)c1cc(N2CCC(N3CCOCC3)CC2)c2c(C3CCC3)nn(-c3ccc(F)cc3)c2n1 [Compound 421, 3-cyclobutyl-1-(4-fluorophenyl)-N-(methanesulfonyl)-4-[4-(morpholin-4-yl)piperidin-1-yl]-1H-pyrazolo[3,4-b]pyridine-6-carboxamide] |  |  | 45.6 nM | 193.3333% |  |  | 
10 | CN(C)S(=O)(=O)NC(=O)c1cc(N2CCC(N3CCOCC3)CC2)c2c(C3CCC3)nn(-c3ccc(F)cc3)c2n1 [Compound 408, 3-cyclobutyl-N-(dimethylsulfamoyl)-1-(4-fluorophenyl)-4-[4-(morpholin-4-yl)piperidin-1-yl]-1H-pyrazolo[3,4-b]pyridine-6-carboxamide] |  |  | 21 nM | 430% |  |  | 
11 | CS(=O)(=O)NC(=O)c1cc(N2CCC(N3CCOCC3)CC2)c2c(C3CCC3)nn(-c3ccccc3)c2n1 [Compound 328, 3-cyclobutyl-N-(methanesulfonyl)-4-[4-(morpholin-4-yl)piperidin-1-yl]-1-phenyl-1H-pyrazolo[3,4-b]pyridine-6-carboxamide] |  |  |  |  |  |  | EC50 [2]: 96 nM
12 | COCCN(C)c1ccc(-c2cc(C(=O)NS(C)(=O)=O)nc3c2c(C2CCC2)nn3-c2ccccc2)cc1 [Compound 75, 3-cyclobutyl-N-(methanesulfonyl)-4-{4-[(2-methoxyethyl)(methyl)amino]phenyl}-1-phenyl-1H-pyrazolo[3,4-b]pyridine-6-carboxamide] |  |  |  |  |  |  | EC50 [2, 6]: 30 nM; % Activity at 1 μM (Ieq*) [2, 7]: 316%
13 | COC1CCN(c2cc(C(=O)NS(C)(=O)=O)nc3c2c(C2CCC2)nn3-c2ccccc2)CC1 [Compound 142, 3-cyclobutyl-N-(methanesulfonyl)-4-(4-methoxypiperidin-1-yl)-1-phenyl-1H-pyrazolo[3,4-b]pyridine-6-carboxamide] |  |  | < 300 nM | 250% |  |  | 
14 | COC1CCN(C2CCN(c3cc(C(=O)NS(=O)(=O)N(C)C)nc4c3c(C3CCC3)nn4-c3ccc(F)cc3)CC2)CC1 [Compound 381, 3-cyclobutyl-N-(dimethylsulfamoyl)-1-(4-fluorophenyl)-4-(4-methoxy[1,4'-bipiperidin]-1'-yl)-1H-pyrazolo[3,4-b]pyridine-6-carboxamide] |  |  | 4100 nM |  |  |  | % Activity at 3 μM (AUC**) [2, 5]: 441%
15 | CC(C)Oc1nn(C2CCCCC2)c2nc(C(=O)NS(=O)(=O)N(C)C)cc(-c3ccc(N4CCN(C5CC5)CC4)cc3)c12 [Compound 559, 1-cyclohexyl-4-[4-(4-cyclopropylpiperazin-1-yl)phenyl]-N-(dimethylsulfamoyl)-3-[(propan-2-yl)oxy]-1H-pyrazolo[3,4-b]pyridine-6-carboxamide] | 291.03% | 154 nM |  | 231.6378% |  |  | 
16 | COCCN(C)c1ccc(-c2cc(C(=O)NS(C)(=O)=O)nc3c2c(C2CCC2)nn3-c2ccccc2)cn1 [Compound 63, 3-cyclobutyl-N-(methanesulfonyl)-4-{6-[(2-methoxyethyl)(methyl)amino]pyridin-3-yl}-1-phenyl-1H-pyrazolo[3,4-b]pyridine-6-carboxamide] |  |  |  |  |  |  | EC50 [2, 6]: 40 nM; % Activity at 1 μM (Ieq*) [2, 7]: 325%
